Reference: paper PMC7180572, “5-Alkylamino-N-phenylpyrazine-2-carboxamides: Design, Preparation, and Antimycobacterial Evaluation” (Molecules, 2020)
≈ marks a conversion by molar mass, not a printed value. Where “and” joins values, the source holds several entries; their conditions need not be identical. Identical values can stand only once. Like-named read-outs stand apart in the source and are kept apart here.

Columns and labels:
[1] = test system: HepG2 cells; assay: HepG2 cytotoxicity, CellTiter 96 (MTS) assay; format: cell-based, human; conditions: for IC50: Homo sapiens, read-out: HepG2 IC50; for SI, selectivity index: IC50 (HepG2)/MIC against Mtb H37Ra (in µM)
[2] = format: physicochemical
Method: As a complementary test, final compounds were tested for in vitro activity against selected fungal and bacterial pathogens of clinical importance. The microdilution broth method was performed according to The European Committee on Antimicrobial Susceptibility Testing (EUCAST) instructions with slight modifications. The minimum inhibitory concentration was expressed in µM. Not all compounds were evaluated due to the fact of a problem with solubility which occurred for 18 samples. […] See Supplementary Materials for the list of tested strains, methodology, and full results.

[3] = test system: Mycobacterium smegmatis DSM 43465 (ATCC 607); assay: Microdilution broth, modified Microplate Alamar Blue Assay, whole cell growth inhibition; format: cell-based; conditions: Mycolicibacterium smegmatis, read-out: MIC Mycobacterium smegmatis
[4] = test system: Mycobacterium aurum DSM 43999 (ATCC 23366); assay: as above; format: cell-based; conditions: Mycolicibacterium aurum, read-out: MIC Mycobacterium aurum
[5] = test system: Mycobacterium tuberculosis H37Ra ITM-M006710 (ATCC 9431); assay: Microdilution broth, modified Microplate Alamar Blue Assay, whole cell growth inhibition; format: cell-based; conditions: Mycobacterium tuberculosis, read-out: MIC Mtb H37Ra
[6] = test system: Aspergillus fumigatus ATCC 204305; assay: Antifungal microdilution broth method (EUCAST); format: cell-based; conditions: read-out: MIC AF
[7] = test system: Aspergillus flavus CCM 8363; assay: Antifungal microdilution broth method (EUCAST); format: cell-based; conditions: read-out: MIC AFla
[8] = test system: Acinetobacter baumanii ATCC 19606, DSM 30007; assay: Antibacterial microdilution broth method (EUCAST); format: cell-based; conditions: Acinetobacter baumannii
[9] = test system: Escherichia coli ATCC 25922, CCM 3954; assay: Antibacterial microdilution broth method (EUCAST); format: cell-based; conditions: read-out: MIC EC
[10] = test system: Candida parapsilosis ATCC 22019, CCM 8260; assay: Antifungal microdilution broth method (EUCAST); format: cell-based; conditions: Lodderomyces parapsilosis, read-out: MIC CP
[11] = test system: Klebsiella pneumoniae ATCC 10031, CCM 4415; assay: Antibacterial microdilution broth method (EUCAST)
[12] = test system: Candida tropicalis ATCC 750, CCM 8264; assay: Antifungal microdilution broth method (EUCAST); format: cell-based; conditions: read-out: MIC CT
[13] = test system: Trichophyton interdigitale ATCC 9533, CCM 8377; assay: Antifungal microdilution broth method (EUCAST); format: cell-based; conditions: read-out: MIC TI
[14] = test system: Staphylococcus aureus methicillin resistant ATCC 43300, CCM 4750; assay: microbe, parasite or virus in culture; format: cell-based; conditions: ATCC 43300 / CCM 4750 / MRSA, read-out: MIC MRSA
[15] = test system: Candida albicans ATCC 24433, CCM 8320; assay: Antifungal microdilution broth method (EUCAST); format: cell-based; conditions: read-out: MIC CA
[16] = test system: Absidia corymbifera CCM 8077 (Lichtheimia corymbifera); assay: Antifungal microdilution broth method (EUCAST); format: cell-based; conditions: read-out: MIC AC
[17] = test system: Candida krusei ATCC 6258, CCM 8271; assay: Antifungal microdilution broth method (EUCAST); format: cell-based; conditions: Pichia kudriavzevii, read-out: MIC CK
[18] = test system: Staphylococcus epidermidis ATCC 12228, CCM 4418; assay: Antibacterial microdilution broth method (EUCAST); format: cell-based; conditions: read-out: MIC SE
[19] = test system: Pseudomonas aeruginosa ATCC 27853, CCM 3955; assay: Antibacterial microdilution broth method (EUCAST); format: cell-based; conditions: read-out: MIC PA
[20] = test system: Staphylococcus aureus spp.aureus ATCC 29213, CCM 4223; assay: Antibacterial microdilution broth method (EUCAST); format: cell-based; conditions: read-out: MIC SA
[21] = test system: Enterococcus faecalis ATCC 29212, CCM 4224; assay: Antibacterial microdilution broth method (EUCAST); format: cell-based; conditions: read-out: MIC EF
[22] = HepG2, 24 h incubation, > means higher concentration not reproducible due to precipitation
[23] = in vitro, Middlebrook 7H9 broth, resazurin

## CCCCCCCCNc1cnc(C(=O)Nc2ccc(Cl)cc2O)cn1 [Compound 6f, N-(4-chloro-2-hydroxyphenyl)-5-(octylamino)pyrazine-2-carboxamide]
[1]; [22]
  IC50: > 50 µM
[2]
  Solubility problem in antibacterial/antifungal testing: did not dissolve in DMSO
[3]; [23]
  MIC: 7.81 mg/L (≈ 20.7 µM)
[4]; [23]
  MIC: ≥ 500 mg/L
other
  melting point: 196.9 to 197.9 °C
[5]; [23]
  MIC: ≥ 500 mg/L

## CCCCCCCNc1cnc(C(=O)Nc2cc(Cl)ccc2O)cn1 [Compound 7e, N-(5-chloro-2-hydroxyphenyl)-5-(heptylamino)pyrazine-2-carboxamide]
[1]; [22]
  IC50: > 10 µM
[2]
  Solubility problem in antibacterial/antifungal testing: did not dissolve in DMSO
[3]
  MIC: 31.2 mg/L (≈ 86.1 µM)
[4]
  MIC: ≥ 500 mg/L
other
  melting point: 243.6 to 246 °C
[5]
  MIC: ≥ 500 mg/L

## CCCCCNc1cnc(C(=O)Nc2cccc(O)c2)cn1 [Compound 2c, N-(3-hydroxyphenyl)-5-(pentylamino)pyrazine-2-carboxamide]
[1]; [22]
  IC50: > 10 µM
[2]
  Solubility problem in antibacterial/antifungal testing: precipitated in both growth media
[3]; [23]
  MIC: ≥ 500 mg/L
[4]; [23]
  MIC: ≥ 500 mg/L
other
  melting point: 224.8 to 226.1 °C
[5]; [23]
  MIC: ≥ 500 mg/L

## CCCCCCNc1cnc(C(=O)Nc2cc(Cl)ccc2O)cn1 [Compound 7d, N-(5-chloro-2-hydroxyphenyl)-5-(hexylamino)pyrazine-2-carboxamide]
[1]; [22]
  IC50: > 25 µM
[2]
  Solubility problem in antibacterial/antifungal testing: did not dissolve in DMSO
[3]; [23]
  MIC: ≥ 500 mg/L
[4]; [23]
  MIC: ≥ 500 mg/L
other
  melting point: 249.3 to 251.9 °C
[5]; [23]
  MIC: ≥ 500 mg/L

## CCCCCNc1cnc(C(=O)Nc2ccc(CC)cc2)cn1 [Compound 5c, N-(4-ethylphenyl)-5-(pentylamino)pyrazine-2-carboxamide]
[1]; [22]
  IC50: > 25 µM
[2]
  Solubility problem in antibacterial/antifungal testing: precipitated in both growth media
[3]; [23]
  MIC: ≥ 500 mg/L
[4]; [23]
  MIC: ≥ 500 mg/L
other
  melting point: 136.1 to 137.1 °C
[5]; [23]
  MIC: ≥ 500 mg/L

## CCCCCNc1cnc(C(=O)Nc2cc(Cl)ccc2O)cn1 [Compound 7c, N-(5-chloro-2-hydroxyphenyl)-5-(pentylamino)pyrazine-2-carboxamide]
[1]; [22]
  IC50: > 25 µM
[2]
  Solubility problem in antibacterial/antifungal testing: did not dissolve in DMSO
[3]; [23]
  MIC: ≥ 500 mg/L
[4]; [23]
  MIC: ≥ 500 mg/L
other
  melting point: 250.3 to 255.1 °C
[5]; [23]
  MIC: ≥ 500 mg/L

## CCCCCCCCNc1cnc(C(=O)Nc2ccc(CC)cc2)cn1 [Compound 5f, N-(4-ethylphenyl)-5-(octylamino)pyrazine-2-carboxamide]
[1]; [22]
  IC50: > 10 µM
[2]
  Solubility problem in antibacterial/antifungal testing: precipitated in both growth media
[3]; [23]
  MIC: ≥ 250 mg/L
[4]; [23]
  MIC: ≥ 250 mg/L
other
  melting point: 131 to 132 °C
[5]; [23]
  MIC: ≥ 250 mg/L

## CCCCCCCCNc1cnc(C(=O)Nc2cc(Cl)ccc2O)cn1 [Compound 7f, N-(5-chloro-2-hydroxyphenyl)-5-(octylamino)pyrazine-2-carboxamide]
[1]; [22]
  IC50: > 50 µM
[2]
  Solubility problem in antibacterial/antifungal testing: did not dissolve in DMSO
[3]; [23]
  MIC: 250 mg/L (≈ 663 µM)
[4]; [23]
  MIC: ≥ 500 mg/L
other
  melting point: 239.7 to 242.4 °C
[5]; [23]
  MIC: ≥ 500 mg/L

## CCCCCCCNc1cnc(C(=O)Nc2cccc(O)c2)cn1 [Compound 2e, 5-(Heptylamino)pyrazine-N-(3-hydroxyphenyl)-2-carboxamide]
[1]; [22]
  IC50: > 10 µM
[2]
  Solubility problem in antibacterial/antifungal testing: precipitated in both growth media
[3]; [23]
  MIC: 250 mg/L (≈ 761 µM)
[4]; [23]
  MIC: ≥ 500 mg/L
other
  melting point: 222 to 223 °C
[5]; [23]
  MIC: ≥ 500 mg/L

## CCCCCCNc1cnc(C(=O)Nc2cccc(O)c2)cn1 [Compound 2d, 5-(Hexylamino)pyrazine-N-(3-hydroxyphenyl)-2-carboxamide]
[1]; [22]
  IC50: > 10 µM
[2]
  Solubility problem in antibacterial/antifungal testing: precipitated in both growth media
[3]; [23]
  MIC: ≥ 500 mg/L
[4]; [23]
  MIC: ≥ 500 mg/L
other
  melting point: 225 to 226 °C
[5]; [23]
  MIC: ≥ 500 mg/L

## CCCCNc1cnc(C(=O)Nc2cc(Cl)ccc2O)cn1 [Compound 7b, 5-(Butylamino)pyrazine-N-(5-chloro-2-hydroxyphenyl)-2-carboxamide]
[1]; [22]
  IC50: > 25 µM
[2]
  Solubility problem in antibacterial/antifungal testing: did not dissolve in DMSO
[3]; [23]
  MIC: 3.91 mg/L (≈ 12.2 µM)
[4]; [23]
  MIC: ≥ 500 mg/L
other
  melting point: 257.9 to 262.1 °C
[5]; [23]
  MIC: ≥ 500 mg/L

## CCCNc1cnc(C(=O)Nc2ccc(CC)cc2)cn1 [Compound 5a, N-(4-ethylphenyl)-5-(propylamino)pyrazine-2-carboxamide]
[6]; ATCC204305, 24 h
  MIC: > 125 µM
[6]; ATCC204305, 48 h
  MIC: > 125 µM
[7]; CCM8363, 24 h
  MIC: > 125 µM
[7]; CCM8363, 48 h
  MIC: > 125 µM
[8]; 24h
  MIC: > 125 µM
[8]; 48h
  MIC: > 125 µM
[9]; 24 h
  MIC: > 125 µM
[9]; 48 h
  MIC: > 125 µM
[10]; 24 h
  MIC: > 125 µM
[10]; 48 h
  MIC: > 125 µM
[1]; HepG2, 24 h
  IC50: 495 µM
[1]
  SI, selectivity index: 18 and 18.01
[11]; 24h
  MIC KP: > 125 µM
[11]; 48h
  MIC KP: > 125 µM
[12]; 24 h
  MIC: > 125 µM
[12]; 48 h
  MIC: > 125 µM
[3]
  MIC: 7.81 mg/L (≈ 27.5 µM)
[13]; 72 h
  MIC: > 125 µM
[13]; 120 h
  MIC: > 125 µM
[14]; 24 h
  MIC: > 125 µM
[14]; 48 h
  MIC: > 125 µM
[4]
  MIC: ≥ 500 mg/L
[15]; 24 h
  MIC: > 125 µM
[15]; 48 h
  MIC: > 125 µM
[16]; CCM8077, 24 h
  MIC: > 125 µM
[16]; CCM8077, 48 h
  MIC: > 125 µM
[17]; 24 h
  MIC: > 125 µM
[17]; 48 h
  MIC: > 125 µM
other
  melting point: 141.8 to 142.8 °C
[18]; 24 h
  MIC: > 125 µM
[18]; 48 h
  MIC: > 125 µM
[19]; 72 h
  MIC: > 125 µM
[19]; 120 h
  MIC: > 125 µM
[5]; MIC converted to µM
  MIC: 27.5 µM
[5]; [23]
  MIC: 7.81 mg/L
[20]; 24 h
  MIC: > 125 µM
[20]; 48 h
  MIC: > 125 µM
[21]; 24 h
  MIC: > 125 µM
[21]; 48 h
  MIC: > 125 µM

## CCCNc1cnc(C(=O)Nc2cccc(C(F)(F)F)c2)cn1 [Compound 1a, 5-(Propylamino)-N-(3-(trifluoromethyl)phenyl)pyrazine-2-carboxamide]
[6]; ATCC204305, 24 h
  MIC: > 125 µM
[6]; ATCC204305, 48 h
  MIC: > 125 µM
[7]; CCM8363, 24 h
  MIC: > 125 µM
[7]; CCM8363, 48 h
  MIC: > 125 µM
[8]; 24h
  MIC: > 500 µM
[8]; 48h
  MIC: > 500 µM
[9]; 24 h
  MIC: > 500 µM
[9]; 48 h
  MIC: > 500 µM
[10]; 24 h
  MIC: > 125 µM
[10]; 48 h
  MIC: > 125 µM
[1]; HepG2, 24 h
  IC50: > 25 µM
[1]
  SI, selectivity index: >1.3
[11]; 24h
  MIC KP: > 500 µM
[11]; 48h
  MIC KP: > 500 µM
[12]; 24 h
  MIC: > 125 µM
[12]; 48 h
  MIC: > 125 µM
[3]
  MIC: ≥ 500 mg/L
[13]; 72 h
  MIC: > 125 µM
[13]; 120 h
  MIC: > 125 µM
[14]; 24 h
  MIC: > 500 µM
[14]; 48 h
  MIC: > 500 µM
[4]
  MIC: ≥ 500 mg/L
[15]; 24 h
  MIC: > 125 µM
[15]; 48 h
  MIC: > 125 µM
[16]; CCM8077, 24 h
  MIC: > 125 µM
[16]; CCM8077, 48 h
  MIC: > 125 µM
[17]; 24 h
  MIC: > 125 µM
[17]; 48 h
  MIC: > 125 µM
other
  melting point: 155 to 156 °C
[18]; 24 h
  MIC: > 500 µM
[18]; 48 h
  MIC: > 500 µM
[19]; 72 h
  MIC: > 500 µM
[19]; 120 h
  MIC: > 500 µM
[5]; [23]
  MIC: 6.25 mg/L
[20]; 24 h
  MIC: > 500 µM
[20]; 48 h
  MIC: > 500 µM
[21]; 24 h
  MIC: > 500 µM
[21]; 48 h
  MIC: > 500 µM
